Where only a bound is given, the exact number is not on record here.

Test [1] relates to Colo205. The test is described as follows: Inhibition of cell proliferation (CellTiter-Glo or InCell analyzer), Colo205. Format: cell-based. The conditions noted are these: Homo sapiens, COLO 205, 72 h / 3 days, values given as IC50 category. The procedure, abridged:
In one

Test [2] concerns the target T1, human IGF1R (hIGF1R) (Homo sapiens, UniProt P08069).
T1 construct: containing amino acid residues 957-1367 of human IGF1R; made in house; host or cells: Sf9 cells (baculovirus)
The test is described as follows: TR-FRET kinase assay of purified hIGF1R. Format: biochemical. The conditions noted are these: activated hIGF1R 0.5 nM, 10 μM ATP, values given as pIC50 category, read-out: IGF-1R pIC50 (converted).

Test [3] relates to NCI-H929. The test is described as follows: Inhibition of cell proliferation (CellTiter-Glo or InCell analyzer), NCI-H929. The conditions noted are these: Homo sapiens, 72 h / 3 days, values given as IC50 category. Format: cell-based. Put shortly: In one
Background: ATP-based viability assays read luminescence as a measure of living cells.

T1 sequence (P08069 957-1367): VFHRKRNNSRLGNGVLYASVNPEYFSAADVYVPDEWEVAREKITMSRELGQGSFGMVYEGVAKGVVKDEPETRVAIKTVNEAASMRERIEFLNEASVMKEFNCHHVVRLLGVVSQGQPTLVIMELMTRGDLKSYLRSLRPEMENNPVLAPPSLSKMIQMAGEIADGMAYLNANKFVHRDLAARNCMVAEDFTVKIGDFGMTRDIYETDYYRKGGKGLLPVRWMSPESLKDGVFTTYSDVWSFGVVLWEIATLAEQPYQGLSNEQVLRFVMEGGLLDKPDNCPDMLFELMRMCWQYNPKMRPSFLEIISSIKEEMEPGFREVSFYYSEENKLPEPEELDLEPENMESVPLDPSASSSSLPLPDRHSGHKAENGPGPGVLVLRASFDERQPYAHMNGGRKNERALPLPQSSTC

Turning to `COc1ccc(N2CCN(C)CC2)cc1Nc1nc(Nc2ccccc2C(N)=O)c2cc[nH]c2n1` [Example 9, 2-[(2-{[2-(methyloxy)-5-(4-methyl-1-piperazinyl)phenyl]amino}-1H-pyrrolo[2,3-d]pyrimidin-4-yl)amino]benzamide], the IC50 in test [1] was less than 250 nM; in test [2], 1.26 to 3.98 nM.

In the case of `COc1ccc(N2CCN(C(C)C)CC2)cc1Nc1nc(Nc2ccccc2C(N)=O)c2cc[nH]c2n1` [Example 10, 2-[(2-{[5-[4-(1-methylethyl)-1-piperazinyl]-2-(methyloxy)phenyl]amino}-1H-pyrrolo[2,3-d]pyrimidin-4-yl)amino]benzamide], the figures for the IC50 in test [1] and in test [2] were less than 250 nM and 1.26 to 3.98 nM, respectively.

As to `CN(C)CC(=O)Nc1ccc(Cl)c(Nc2nc(Nc3ccccc3C(N)=O)c3cc[nH]c3n2)c1` [Example 18, 2-{[2-({2-chloro-5-[(N,N-dimethylglycyl)amino]phenyl}amino)-1H-pyrrolo[2,3-d]pyrimidin-4-yl]amino}benzamide], the IC50 in test [1] was less than 250 nM; in test [2] it was 0.251 to 1 nM.

Turning to `COc1cc(N2CCC(N3CC[C@H](F)C3)CC2)ccc1Nc1nc(Nc2cccc(F)c2C(N)=O)c2cc[nH]c2n1` [Example 43, 2-fluoro-6-[(2-{[4-{4-[(3S)-3-fluoro-1-pyrrolidinyl]-1-piperidinyl}-2-(methyloxy)phenyl]amino}-1H-pyrrolo[2,3-d]pyrimidin-4-yl)amino]benzamide], the IC50 was 250 to 1000 nM in test [1] and 1.26 to 3.98 nM in test [2].

For `COc1cc(N2CCC(N3CC[C@@H](F)C3)CC2)ccc1Nc1nc(Nc2cccc(F)c2C(N)=O)c2cc[nH]c2n1` [Example 44, 2-fluoro-6-[(2-{[4-{4-[(3R)-3-fluoro-1-pyrrolidinyl]-1-piperidinyl}-2-(methyloxy)phenyl]amino}-1H-pyrrolo[2,3-d]pyrimidin-4-yl)amino]benzamide], the figures for the IC50 in test [1], in test [2] and in test [3] were 250 to 1000 nM, 1.26 to 3.98 nM and less than 250 nM, respectively.

With `COc1cc(N2CCN(C(C)C)CC2)ccc1Nc1nc(Nc2cccc(F)c2C(N)=O)c2cc[nH]c2n1` [Example 46, 2-fluoro-6-[(2-{[4-[4-(1-methylethyl)-1-piperazinyl]-2-(methyloxy)phenyl]amino}-1H-pyrrolo[2,3-d]pyrimidin-4-yl)amino]benzamide], the figures for the IC50 in test [1], in test [2] and in test [3] were less than 250 nM, 1.26 to 3.98 nM and less than 250 nM, respectively.

Regarding `COc1cc(N2CCN(C(C)C)CC2)c(F)cc1Nc1nc(Nc2cccc(F)c2C(N)=O)c2cc[nH]c2n1` [Example 48, 2-fluoro-6-[(2-{[5-fluoro-4-[4-(1-methylethyl)-1-piperazinyl]-2-(methyloxy)phenyl]amino}-1H-pyrrolo[2,3-d]pyrimidin-4-yl)amino]benzamide], the IC50 in test [1] was 250 to 1000 nM; in test [2] it was 1.26 to 3.98 nM; in test [3], less than 250 nM.

`COc1cc(N2CCOC[C@@H]2C)ccc1Nc1nc(Nc2cccc(F)c2C(N)=O)c2cc[nH]c2n1` [Example 49, 2-fluoro-6-[(2-{[4-[(3S)-3-methyl-4-morpholinyl]-2-(methyloxy)phenyl]amino}-1H-pyrrolo[2,3-d]pyrimidin-4-yl)amino]benzamide]: the IC50 was less than 250 nM in test [1] and 1.26 to 3.98 nM in test [2].

Take `COc1cc(N2CCC(N3CCOCC3)CC2)ccc1Nc1nc(Nc2ccc(F)cc2C(N)=O)c2cc[nH]c2n1` [Example 59, 5-fluoro-2-{[2-({2-(methyloxy)-4-[4-(4-morpholinyl)-1-piperidinyl]phenyl}amino)-1H-pyrrolo[2,3-d]pyrimidin-4-yl]amino}benzamide]: the IC50 in test [1] was less than 250 nM; in test [2] it was 1.26 to 3.98 nM.

For `COc1cc(N2CCOC[C@@H]2C)ccc1Nc1nc(Nc2ccc(F)cc2C(N)=O)c2cc[nH]c2n1` [Example 61, 5-fluoro-2-[(2-{[4-[(3S)-3-methyl-4-morpholinyl]-2-(methyloxy)phenyl]amino}-1H-pyrrolo[2,3-d]pyrimidin-4-yl)amino]benzamide], the IC50 is less than 250 nM in test [1] and 1.26 to 3.98 nM in test [2].

With `COc1cc(N2CCN(C(C)C)CC2)ccc1Nc1nc(Nc2ccc(Br)cc2C(N)=O)c2cc[nH]c2n1` [Example 68, 5-bromo-2-[(2-{[4-[4-(1-methylethyl)-1-piperazinyl]-2-(methyloxy)phenyl]amino}-1H-pyrrolo[2,3-d]pyrimidin-4-yl)amino]benzamide], the values for the IC50 in test [1] and in test [2] were less than 250 nM and 1.26 to 3.98 nM, respectively.

Regarding `COc1cc(C2=CCN(C(C)C)CC2)ccc1Nc1nc(Nc2cc(F)ccc2C(N)=O)c2cc[nH]c2n1` [Example 72, 4-fluoro-2-[(2-{[4-[1-(1-methylethyl)-1,2,3,6-tetrahydro-4-pyridinyl]-2-(methyloxy)phenyl]amino}-1H-pyrrolo[2,3-d]pyrimidin-4-yl)amino]benzamide], the IC50 in test [1] is 250 to 1000 nM; in test [2], 0.251 to 1 nM.

`COc1cc(N2CCC[C@H](O)C2)ccc1Nc1nc(Nc2cc(F)ccc2C(N)=O)c2cc[nH]c2n1` [Example 74, 4-fluoro-2-[(2-{[4-[(3S)-3-hydroxy-1-piperidinyl]-2-(methyloxy)phenyl]amino}-1H-pyrrolo[2,3-d]pyrimidin-4-yl)amino]benzamide]: the IC50 is less than 250 nM in test [1] and 0.251 to 1 nM in test [2].

For the compound `COc1cc(N2CCC(N3CC[C@H](F)C3)CC2)ccc1Nc1nc(Nc2cc(F)ccc2C(N)=O)c2cc[nH]c2n1` [Example 75, 4-fluoro-2-[(2-{[4-{4-[(3S)-3-fluoro-1-pyrrolidinyl]-1-piperidinyl}-2-(methyloxy)phenyl]amino}-1H-pyrrolo[2,3-d]pyrimidin-4-yl)amino]benzamide], the IC50 in test [1] was less than 250 nM; in test [2], 0.251 to 1 nM.

Take `COc1cc(N2CCC(N3CC[C@@H](F)C3)CC2)ccc1Nc1nc(Nc2cc(F)ccc2C(N)=O)c2cc[nH]c2n1` [Example 76, 4-fluoro-2-[(2-{[4-{4-[(3R)-3-fluoro-1-pyrrolidinyl]-1-piperidinyl}-2-(methyloxy)phenyl]amino}-1H-pyrrolo[2,3-d]pyrimidin-4-yl)amino]benzamide]: the figures for the IC50 in test [1] and in test [2] were 250 to 1000 nM and 0.251 to 1 nM, respectively.

Turning to `COc1cc(N2CCC(N3CCCC(F)(F)C3)CC2)ccc1Nc1nc(Nc2cc(F)ccc2C(N)=O)c2cc[nH]c2n1` [Example 77, 2-[(2-{[4-(3,3-difluoro-1,4′-bipiperidin-1′-yl)-2-(methyloxy)phenyl]amino}-1H-pyrrolo[2,3-d]pyrimidin-4-yl)amino]-4-fluorobenzamide], the values for the IC50 in test [1] and in test [2] were 250 to 1000 nM and 1.26 to 3.98 nM, respectively.

Regarding `COc1cc(N2CCN(C(C)C)CC2)c(OC)cc1Nc1nc(Nc2cc(F)ccc2C(N)=O)c2cc[nH]c2n1` [Example 82, 4-fluoro-2-[(2-{[4-[4-(1-methylethyl)-1-piperazinyl]-2,5-bis(methyloxy)phenyl]amino}-1H-pyrrolo[2,3-d]pyrimidin-4-yl)amino]benzamide], the IC50 in test [1] was less than 250 nM; in test [2], 1.26 to 3.98 nM.

Consider `CCCN1CCC=C(c2ccc(Nc3nc(Nc4cc(F)ccc4C(=O)N[C@@H](C)CC)c4cc[nH]c4n3)c(OC)c2)C1` [Example 87, 4-fluoro-2-[(2-{[2-(methyloxy)-4-(1-propyl-1,2,5,6-tetrahydro-3-pyridinyl)phenyl]amino}-1H-pyrrolo[2,3-d]pyrimidin-4-yl)amino]-N-[(1S)-1-methylpropyl]benzamide], for which the IC50 in test [1] was 250 to 1000 nM; in test [2], 1.26 to 3.98 nM.

In the case of `COc1cc(N2CCN(C(C)C)CC2)ccc1Nc1nc(Nc2cc(F)cc(OC)c2C(N)=O)c2cc[nH]c2n1` [Example 88], the IC50 in test [1] is 250 to 1000 nM; in test [2], 1.26 to 3.98 nM.

With `COc1cc(N2CCC(O)CC2)ccc1Nc1nc(Nc2cc(F)c(F)cc2C(N)=O)c2cc[nH]c2n1` [Example 99], the values for the IC50 in test [1] and in test [2] were 250 to 1000 nM and 0.251 to 1 nM, respectively.

`COc1cc(N2CCC(N3CCCCC3)CC2)ccc1Nc1nc(Nc2cc(F)c(F)cc2C(N)=O)c2cc[nH]c2n1` [Example 100, 2-[(2-{[4-(1,4′-bipiperidin-1′-yl)-2-(methyloxy)phenyl]amino}-1H-pyrrolo[2,3-d]pyrimidin-4-yl)amino]-4,5-difluorobenzamide]: the IC50 in test [1] was less than 250 nM; in test [2], 0.251 to 1 nM.

`COc1cc(N2CCC(N3CCOCC3)CC2)ccc1Nc1nc(Nc2cc(F)c(F)cc2C(N)=O)c2cc[nH]c2n1` [Example 101, 4,5-difluoro-2-{[2-({2-(methyloxy)-4-[4-(4-morpholinyl)-1-piperidinyl]phenyl}amino)-1H-pyrrolo[2,3-d]pyrimidin-4-yl]amino}benzamide]: the IC50 in test [1] was 250 to 1000 nM; in test [2] it was 0.251 to 1 nM.

As for `COc1cc(N2CCN(C(C)=O)CC2)ccc1Nc1nc(Nc2cc(F)c(F)cc2C(N)=O)c2cc[nH]c2n1` [Example 103, 2-[(2-{[4-(4-acetyl-1-piperazinyl)-2-(methyloxy)phenyl]amino}-1H-pyrrolo[2,3-d]pyrimidin-4-yl)amino]-4,5-difluorobenzamide], the IC50 was less than 250 nM in test [1] and 0.251 to 1 nM in test [2].

Consider `COc1cc(N2CCOCC2)ccc1Nc1nc(Nc2cc(F)c(F)cc2C(N)=O)c2cc[nH]c2n1` [Example 104, 4,5-difluoro-2-[(2-{[2-(methyloxy)-4-(4-morpholinyl)phenyl]amino}-1H-pyrrolo[2,3-d]pyrimidin-4-yl)amino]benzamide], for which the figures for the IC50 in test [1] and in test [2] were greater than 1000 nM and 0.251 to 1 nM, respectively.

Take `COc1cc(N2CCOC[C@@H]2C)ccc1Nc1nc(Nc2cc(F)c(F)cc2C(N)=O)c2cc[nH]c2n1` [Example 105, 4,5-difluoro-2-[(2-{[4-[(3S)-3-methyl-4-morpholinyl]-2-(methyloxy)phenyl]amino}-1H-pyrrolo[2,3-d]pyrimidin-4-yl)amino]benzamide]: the IC50 in test [1] was less than 250 nM; in test [2], 0.251 to 1 nM.

Source of the values: US7981903B2, “2-[2-{phenylamino}-1H-pyrrolo[2,3-D]pyrimidin-4-yl)amino] benzamide derivatives as IGF-1R inhibitors for the treatment of cancer” (GlaxoSmithKline LLC, priority 2007, dated 2011).
